Laboratory results taken from ChEMBL document CHEMBL5120978, “Application of Compositions Comprising a KRAS G12C Inhibitor and an EGFR Inhibitor for the Potential Treatment of Cancer” (2022).

Experiments:
Assay type in all cases: functional
NCI-H2122 [1] = assay: Anti-tumor activity against human NCI-H2122 cells xenografted with nude mouse assessed as inhibition of tumor growth inhibition at 50 mg/kg, po QD for 21 days relative to control; conditions: NCI-H2122, 504 h, time 21 day, read-out: TGI
NCI-H2122 [2] = assay: Anti-tumor activity against human NCI-H2122 cells xenografted with nude mouse assessed as inhibition of tumor growth inhibition at 50 mg/kg, po QD for 21 days co-treated with 50 mg/kg, po QD Erlotinib relative to control; conditions: NCI-H2122, 504 h, time 21 day, read-out: TGI
[3] = Anti-tumor activity against human PDX CR6256 cells xenografted with nude BALB/c mouse assessed as inhibition of tumor growth inhibition at 30 mg/kg, po QD for 21 days co-treated with 20 mg/kg, ip QD Cetuximab relative to control; conditions: PDX CR6256, 504 h, time 21 day, read-out: TGI

Row | SMILES | inhibition in vivo at 50 mg/kg (NCI-H2122 [1]) | inhibition in vivo at 50 mg/kg (NCI-H2122 [2]) | inhibition in vivo at 30 mg/kg [3]
1 | C#Cc1cccc(Nc2ncnc3cc(OCCOC)c(OCCOC)cc23)c1 [ERLOTINIB] | 48% |  | 
2 | C=CC(=O)N1CCN(c2nc(OC[C@@H]3CCCN3C)nc3c(F)c(-c4nc(N)cc(C)c4C(F)(F)F)c(Cl)cc23)[C@@H](C)C1 [DIVARASIB] | 93% | 117% | 133%
